Source: patent publication US9498483B2, “2,3,5-trisubstituted thiophene compounds and uses thereof” (priority 2010, dated 2016)

What was measured:
HCV polymerase = molecular target: T1, HCV polymerase (Hepatitis C virus genotype 1b, UniProt Q9WMX2); assay: Polymerase assay of Biological Example 1 (IC50 values of Table 3); format: biochemical; conditions: IC50 values of Table 3, polymerase assay of Biological Example 1; read-out: NS5B-enzyme3
T1 construct: (His)6 (C); made in house; host or cells: XL-1 cells (E. coli, by own knowledge)
Source text: A number of assays have been published to assess these activities. A general method that assesses the gross increase of HCV virus in culture was disclosed in U.S. Pat. No. 5,738,985 to Miles et al. In vitro assays have been reported in Ferrari et al. Jnl. of Vir., 73:1649-1654, 1999; Ishii et al., Hepatology, 29:1227-1235, 1999; Lohmann et al., Jnl of Bio. Chem., 274:10807-10815, 1999; and Yamashita et al., Jnl. of Bio. Chem., 273:15479-15486, 1998.
WO 97/12033, filed on Sep. 27, 1996, by Emory University, listing C. Hagedorn and A. Reinoldus as inventors, which claims priority to U.S. Provisional Patent Application Ser. No. 60/004,383, filed on September 1995, described an HCV polymerase assay that can be used to evaluate the activity of the of the compounds described herein. Another HCV polymerase assay has been reported by Bartholomeusz, et al., Hepatitis C Virus (HCV) RNA polymerase assay using cloned HCV non-structural proteins; Antiviral Therapy 1996:1 (Supp 4) 18-24.

[1] = system: HCV replicon I389luc-ubi-neo/NS3-3′/ET in ET (Huh-lucubineo-ET) cells; assay: Replicon assay (Biological Example 2), luciferase readout; format: cell-based; conditions: Hepatitis C virus
Description: A cell line, ET (Huh-lucubineo-ET) was used for screening of compounds for inhibiting HCV RNA dependent RNA polymerase. The ET cell line was stably transfected with RNA transcripts harboring a I389luc-ubi-neo/NS3-3′/ET; replicon with firefly luciferase-ubiquitin-neomycin phosphotransferase fusion protein and EMCV-IRES driven NS3-5B polyprotein containing the cell culture adaptive mutations (E1202G; T12801; K1846T) (Krieger at al, 2001 and unpublished). The ET cells were grown in DMEM (Dulbeco's Modified Eagle's Medium), supplemented with 10% fetal calf serum, 2 mM Glutamine, Penicillin (100 IU/mL)/Streptomycin (100 μg/mL), 1× nonessential amino acids, and 250 μg/mL G418 (“Geneticin”). Reagents were all available through Life Technologies (Bethesda, Md.). The cells were plated at 0.5-1.0×10^4 cells/well in the 96 well plates and incubated for 24 hrs before adding test compound. The compounds were added to the cells to achieve a final concentration of 0.1 nM to 50 μM and a final DMSO (dimethylsulfoxide) concentration of 0.5%. Luciferase activity was measured 48 hours later by adding a lysis buffer and the substrate (Catalog number Glo-lysis buffer E2661 and Bright-Glo luciferase system E2620 Promega, Madison, Wis.). Cells should not be too confluent during the assay. Percent inhibition of replication data was plotted relative to no compound control. To determine the EC50 (effective concentration at which 50% of the maximum inhibition was observed), a 10 point, 3-fold serial dilution for each compound was used, which spans a concentration range of […]. EC50 values were calculated by fitting % inhibition at each concentration to the following equation: % inhibition=100%/[(EC50/[I])^b+1] where b was Hill's coefficient.
In other aspects the EC50 was equal to or less than 10 μM. In still other aspects the EC50 was equal to or less than 1 μM.

[2] = ET cells, luciferase activity 48 hours after compound

| Compound | IC50 (HCV polymerase) | IC50 [1, 2] | IC50 ([1]; between 100 nM and 5.0 uM) |
| --- | --- | --- | --- |
| Cc1oc(C)c(S(=O)(=O)N2CC(=O)N(c3cc(-c4ccccc4)sc3C(=O)O)C(C3CCCCC3)C2)c1C(=O)O (stereo not drawn) [Compound 33, 4-[4-(2-Carboxy-5-phenyl-thiophen-3-yl)-3-cyclohexyl-5-oxo-piperazine-1-sulfonyl]-2,5-dimethyl-furan-3-carboxylic acid] | 38 nM | ≥ 5000 nM | – |
| CC(C)(C)C#Cc1cc(N2C(=O)CCC[C@@H]2C2CCCCC2)c(C(=O)O)s1 [Compound 34, 3-((R)-2-Cyclohexyl-6-oxo-piperidin-1-yl)-5-(3,3-dimethyl-but-1-ynyl)-thiophene-2-carboxylic acid] | 1050 nM | ≥ 5000 nM | – |
| CC(C)(C)C#Cc1cc(N2C(=O)CCC[C@H]2C2CCCCC2)c(C(=O)O)s1 [Compound 35, 3-((S)-2-Cyclohexyl-6-oxo-piperidin-1-yl)-5-(3,3-dimethyl-but-1-ynyl)-thiophene-2-carboxylic acid] | 9.5 nM | ≤ 100 nM | – |
| CC1CCN(S(=O)(=O)N2CC(=O)N(c3cc(-c4ccccc4)sc3C(=O)O)C(C3CCCCC3)C2)CC1 (stereo not drawn) [Compound 36, 3-[2-Cyclohexyl-4-(4-methyl-piperidine-1-sulfonyl)-6-oxo-piperazin-1-yl]-5-phenyl-thiophene-2-carboxylic acid] | 58 nM | – | 100 to 5000 nM |
| CC(C)S(=O)(=O)N1CC(=O)N(c2cc(-c3ccccc3)sc2C(=O)O)C(C2CCCCC2)C1 (stereo not drawn) [Compound 37, 3-[2-Cyclohexyl-6-oxo-4-(propane-2-sulfonyl)-piperazin-1-yl]-5-phenyl-thiophene-2-carboxylic acid] | 72 nM | – | 100 to 5000 nM |
| CC(C)CS(=O)(=O)N1CC(=O)N(c2cc(-c3ccccc3)sc2C(=O)O)C(C2CCCCC2)C1 (stereo not drawn) [Compound 38, 3-[2-Cyclohexyl-4-(2-methyl-propane-1-sulfonyl)-6-oxo-piperazin-1-yl]-5-phenyl-thiophene-2-carboxylic acid] | 65 nM | – | 100 to 5000 nM |
| O=C(O)c1sc(-c2ccccc2)cc1N1C(=O)CN(S(=O)(=O)CCc2ccccc2)CC1C1CCCCC1 (stereo not drawn) [Compound 39, 3-[2-Cyclohexyl-6-oxo-4-(2-phenyl-ethanesulfonyl)-piperazin-1-yl]-5-phenyl-thiophene-2-carboxylic acid] | 51 nM | – | 100 to 5000 nM |
| O=C(O)c1sc(-c2ccccc2)cc1N1C(=O)CN(S(=O)(=O)c2ccccc2F)CC1C1CCCCC1 (stereo not drawn) [Compound 40, 3-[2-Cyclohexyl-4-(2-fluoro-benzenesulfonyl)-6-oxo-piperazin-1-yl]-5-phenyl-thiophene-2-carboxylic acid] | 13 nM | – | 100 to 5000 nM |
| O=C(O)CCS(=O)(=O)N1CC(=O)N(c2cc(-c3ccccc3)sc2C(=O)O)C(C2CCCCC2)C1 (stereo not drawn) [Compound 41, 3-[4-(2-Carboxy-ethanesulfonyl)-2-cyclohexyl-6-oxo-piperazin-1-yl]-5-phenyl-thiophene-2-carboxylic acid] | 218 nM | ≥ 5000 nM | – |
| O=C(O)c1sc(-c2ccccc2)cc1N1C(=O)CN(S(=O)(=O)C2CCCC2)CC1C1CCCCC1 (stereo not drawn) [Compound 42, 3-(2-Cyclohexyl-4-cyclopentanesulfonyl-6-oxo-piperazin-1-yl)-5-phenyl-thiophene-2-carboxylic acid] | 148 nM | – | 100 to 5000 nM |
| CCC(C)S(=O)(=O)N1CC(=O)N(c2cc(-c3ccccc3)sc2C(=O)O)C(C2CCCCC2)C1 (stereo not drawn) [Compound 45, 3-[4-(Butane-2-sulfonyl)-2-cyclohexyl-6-oxo-piperazin-1-yl]-5-phenyl-thiophene-2-carboxylic acid] | 4900 nM | – | 100 to 5000 nM |
| O=C(O)c1sc(-c2ccccc2)cc1N1C(=O)CN(S(=O)(=O)C2CCCCC2)CC1C1CCCCC1 (stereo not drawn) [Compound 46, 3-(4-Cyclohexanesulfonyl-2-cyclohexyl-6-oxo-piperazin-1-yl)-5-phenyl-thiophene-2-carboxylic acid] | 63 nM | – | 100 to 5000 nM |
| NCCS(=O)(=O)N1CC(=O)N(c2cc(-c3ccccc3)sc2C(=O)O)C(C2CCCCC2)C1 (stereo not drawn) [Compound 47, 3-[4-(2-Amino-ethanesulfonyl)-2-cyclohexyl-6-oxo-piperazin-1-yl]-5-phenyl-thiophene-2-carboxylic acid] | 88 nM | ≥ 5000 nM | 100 to 5000 nM |
| O=C(O)c1sc(-c2cccc(F)c2)cc1N1C(=O)CCCC1C1CCCCC1 (stereo not drawn) [Compound 48, 3-(2-Cyclohexyl-6-oxo-piperidin-1-yl)-5-(3-fluoro-phenyl)-thiophene-2-carboxylic acid] | 187 nM | – | 100 to 5000 nM |
| Cc1cccc(S(=O)(=O)N2CC(=O)N(c3cc(-c4ccccc4)sc3C(=O)O)C(C3CCCCC3)C2)c1 (stereo not drawn) [Compound 49, 3-[2-Cyclohexyl-6-oxo-4-(toluene-3-sulfonyl)-piperazin-1-yl]-5-phenyl-thiophene-2-carboxylic acid] | 15 nM | – | 100 to 5000 nM |
| CC(=O)Nc1ccc(S(=O)(=O)N2CC(=O)N(c3cc(-c4ccccc4)sc3C(=O)O)C(C3CCCCC3)C2)cc1 (stereo not drawn) [Compound 50, 3-[4-(4-Acetylamino-benzenesulfonyl)-2-cyclohexyl-6-oxo-piperazin-1-yl]-5-phenyl-thiophene-2-carboxylic acid] | 7 nM | – | 100 to 5000 nM |
| O=C(O)c1sc(-c2ccccc2)cc1N1C(=O)CN(S(=O)(=O)c2ccc(Oc3ccccc3)cc2)CC1C1CCCCC1 (stereo not drawn) [Compound 51, 3-[2-Cyclohexyl-6-oxo-4-(4-phenoxy-benzenesulfonyl)-piperazin-1-yl]-5-phenyl-thiophene-2-carboxylic acid] | 11 nM | – | 100 to 5000 nM |
| O=C(O)c1sc(-c2ccccc2)cc1N1C(=O)CN(S(=O)(=O)c2ccccc2)CC1C1CCCCC1 (stereo not drawn) [Compound 52, 3-(4-Benzenesulfonyl-2-cyclohexyl-6-oxo-piperazin-1-yl)-5-phenyl-thiophene-2-carboxylic acid] | 15 nM | – | 100 to 5000 nM |
| O=C(O)c1sc(-c2ccccc2)cc1N1C(=O)CN(S(=O)(=O)c2ccc(OC(F)(F)F)cc2)CC1C1CCCCC1 (stereo not drawn) [Compound 53] | 24 nM | – | 100 to 5000 nM |
| O=C(O)c1sc(-c2ccccc2)cc1N1C(=O)CN(S(=O)(=O)c2ccc(C(F)(F)F)cc2)CC1C1CCCCC1 (stereo not drawn) [Compound 54, 3-[2-Cyclohexyl-6-oxo-4-(4-trifluoromethyl-benzenesulfonyl)-piperazin-1-yl]-5-phenyl-thiophene-2-carboxylic acid] | 18 nM | – | 100 to 5000 nM |
| CCc1ccc(S(=O)(=O)N2CC(=O)N(c3cc(-c4ccccc4)sc3C(=O)O)C(C3CCCCC3)C2)cc1 (stereo not drawn) [Compound 56, 3-[2-Cyclohexyl-4-(4-ethyl-benzenesulfonyl)-6-oxo-piperazin-1-yl]-5-phenyl-thiophene-2-carboxylic acid] | 7.1 nM | – | 100 to 5000 nM |
| Cn1ccc2cccc(S(=O)(=O)N3CC(=O)N(c4cc(-c5ccccc5)sc4C(=O)O)C(C4CCCCC4)C3)c21 (stereo not drawn) [Compound 57, 3-[2-Cyclohexyl-4-(1-methyl-1H-indole-7-sulfonyl)-6-oxo-piperazin-1-yl]-5-phenyl-thiophene-2-carboxylic acid] | 260 nM | ≥ 5000 nM | – |
| Cc1ccccc1S(=O)(=O)N1CC(=O)N(c2cc(-c3ccccc3)sc2C(=O)O)C(C2CCCCC2)C1 (stereo not drawn) [Compound 58, 3-[2-Cyclohexyl-6-oxo-4-(toluene-2-sulfonyl)-piperazin-1-yl]-5-phenyl-thiophene-2-carboxylic acid] | 88 nM | – | 100 to 5000 nM |
| O=C(O)c1sc(-c2ccccc2)cc1N1C(=O)CN(S(=O)(=O)c2cccc(OC(F)(F)F)c2)CC1C1CCCCC1 (stereo not drawn) [Compound 59] | 39 nM | – | 100 to 5000 nM |
| O=C(O)c1sc(-c2ccccc2)cc1N1C(=O)CN(S(=O)(=O)c2ccc(-c3ccccc3)cc2)CC1C1CCCCC1 (stereo not drawn) [Compound 60, 3-[4-(Biphenyl-4-sulfonyl)-2-cyclohexyl-6-oxo-piperazin-1-yl]-5-phenyl-thiophene-2-carboxylic acid] | 9 nM | – | 100 to 5000 nM |
